From paper PMC3815952 (Microbial biotechnology, 2009)

Tests used:
Adeh3811 = experiment: calorimetry, non-linear regression; type: biochemical, Anaeromyxobacter dehalogenans; conditions: Tris-SO4 pH 8.5, 30°C
RHA1_ro00230 = RHA1_ro00230 (Rhodococcus jostii, UniProt Q0SK70); experiment: calorimetry, non-linear regression; type: biochemical; conditions: Tris-SO4 pH 8.5, 30°C
RPA1163 = RPA1163 (Rhodopseudomonas palustris, UniProt Q6NAM1); experiment: calorimetry, non-linear regression; type: biochemical; conditions: Tris-SO4 pH 8.5, 30°C
RPA1163, sequence (Q6NAM1 whole entry): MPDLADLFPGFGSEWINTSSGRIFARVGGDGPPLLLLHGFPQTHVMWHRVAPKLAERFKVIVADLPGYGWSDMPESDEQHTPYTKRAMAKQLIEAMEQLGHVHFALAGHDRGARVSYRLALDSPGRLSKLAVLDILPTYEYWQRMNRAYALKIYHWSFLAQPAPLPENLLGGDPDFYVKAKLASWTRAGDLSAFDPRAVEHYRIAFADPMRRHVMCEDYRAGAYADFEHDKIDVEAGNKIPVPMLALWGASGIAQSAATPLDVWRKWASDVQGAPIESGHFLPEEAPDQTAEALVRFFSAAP

Bpro4516 = conditions: Tris-SO4 pH 8.5, 30°C
Bcen2424–2051 = conditions: read-out: Substrates / Chloroacetate / KM; Tris-SO4 pH 8.5, 30°C

RHA1_ro00230, sequence (Q0SK70 1-254): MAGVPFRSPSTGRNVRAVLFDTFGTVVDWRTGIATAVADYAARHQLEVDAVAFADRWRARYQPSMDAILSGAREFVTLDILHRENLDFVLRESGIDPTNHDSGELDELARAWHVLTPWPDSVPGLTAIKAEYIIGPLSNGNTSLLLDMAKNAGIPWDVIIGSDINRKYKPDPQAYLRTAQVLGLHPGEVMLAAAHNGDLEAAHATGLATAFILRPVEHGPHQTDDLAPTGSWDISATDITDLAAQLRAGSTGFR

Row | SMILES | Substrates / Fluoroacetate / KM (μM) (Adeh3811) | Substrates / Fluoroacetate / KM (μM) (RHA1_ro00230) | Substrates / Fluoroacetate / KM (μM) (RPA1163) | Substrates / Fluoroacetate / KM (μM) (Bpro4516) | Substrates / Chloroacetate / KM (μM) (RHA1_ro00230) | Substrates / Chloroacetate / KM (μM) (RPA1163) | Km (Bcen2424–2051)
1 | O=C(O)CF [fluoroacetate] | 13 500 ± 300 µM | 20 000 ± 2000 µM | 3 300 ± 200 µM | 19 000 ± 2000 µM | – | – | –
2 | O=C(O)CCl [chloroacetate] | – | – | – | – | 19 000 ± 2000 µM | 1 400 ± 400 µM | 17 ± 2 µM
